The target of data set [1] is farnesyl protein transferase (Homo sapiens, UniProt P49354+P49356). The data set is described as follows: In vitro assay for inhibition of farnesyl protein transferase. The format is biochemical. To be noted: for IC50: negative log value of the IC50-value; for inhibition at 0.1 µM: read-out: % of inhibition at 10^−7 M. The method, then: “In Vitro Assay for Inhibition of Farnesyl Protein Transferase”
An in vitro assay for inhibition of farnesyl transferase was performed essentially as described in WO 98/40383pages 33–34.

Where [2] appears, read: read-out: Enzyme activity pIC50 (converted).

Like-named read-outs stand apart in the source and are kept apart here. Some results are limits rather than exact numbers.

On to `Cn1c(=O)cc(-c2cccc(Cl)c2)c2cc(C(O)c3cncn3Cc3ccc(C#N)cc3)ccc21` (stereo not drawn) [Compound 3, 4-[[5-[[4-(3-chlorophenyl)-1,2-dihydro-1-methyl-2-oxo-6-quinolinyl]hydroxymethyl]-1H-imidazol-1-yl]methyl]-benzonitrile], for which the melting point – broadly, the temperature, or range, at which the solid turns liquid – came to 150 °C. The IC50 in data set [1] (setting [2]) was 5.45 nM. Also, in data set [1] (read-out: pIC50 (converted)), the IC50 is 5.01 nM. Also, in data set [1], the inhibition (usually the percentage by which the read-out fell short of the control) at 0.1 µM was found to be 92%.
Consider `O=C(c1ccc2c(c1)c(-c1cccc(Cl)c1)cc1nnnn12)c1cncn1Cc1ccc(Cl)cc1` [Compound 4], for which the melting point was 105 °C. Moreover, the IC50 in data set [1] (setting [2]) was above 100 nM. The inhibition at 0.1 µM in data set [1] worked out at 26%.
The matching figures for `OC(c1ccc2c(c1)c(-c1cccc(Cl)c1)cc1nnnn12)c1cncn1Cc1ccc(Cl)cc1` (stereo not drawn) [Compound 5]: 140 °C, above 100 nM and 32%.
In the case of `Cn1c(=O)cc(-c2cccc(Cl)c2)c2cc(C(=O)c3cncn3Cc3ccccc3)ccc21` [Compound 7], the melting point amounted to 192 °C.
The same measure, in the same setting: then `Cn1c(=O)cc(-c2cccc(Cl)c2)c2cc(C(O)c3cncn3Cc3ccccc3)ccc21` (stereo not drawn) [Compound 8], with 188 °C.
In the case of `Cn1c(=O)cc(-c2cccc(Cl)c2)c2cc(C(NC3CC3)c3cncn3Cc3ccccc3)ccc21` (stereo not drawn) [Compound 9], the IC50 in data set [1] (setting [2]) is above 100 nM. In data set [1], the inhibition at 0.1 µM stood at 44%.
The matching figures for `COC(c1ccc2c(c1)c(-c1cccc(Cl)c1)cc(=O)n2C)c1cncn1Cc1ccccc1` (stereo not drawn) [Compound 10]: above 100 nM and 43%.
Turning to `Cn1c(=O)cc(-c2cccc(Cl)c2)c2cc(C(N)c3cncn3Cc3ccccc3)ccc21` (stereo not drawn) [Compound 11], in data set [1] (setting [2]), the IC50 was above 100 nM. Also, the inhibition at 0.1 µM in data set [1] turned out to be 49%.
With `Cn1c(=O)cc(-c2cccc(Cl)c2)c2cc(C(c3cncn3Cc3ccccc3)n3ccnc3)ccc21` (stereo not drawn) [Compound 12], the melting point is 102 °C. Moreover, the IC50 in data set [1] (setting [2]) was above 100 nM. Further, the inhibition at 0.1 µM in data set [1] worked out at 47%.
The compound `CC(=O)NC(c1ccc2c(c1)c(-c1cccc(Cl)c1)cc(=O)n2C)c1cncn1Cc1ccccc1` (stereo not drawn) [Compound 13] came in with a melting point of 210 °C. Further, the IC50 in data set [1] (setting [2]) is below 100 nM. Besides, the inhibition at 0.1 µM in data set [1] is 65%.
On to `N#Cc1ccc(Cn2cncc2C(O)c2ccc3c(c2)c(-c2cccc(Cl)c2)cc2nnnn23)cc1` (stereo not drawn) [Compound 14], for which the IC50 in data set [1] (read-out: pIC50 (converted)) was 10.8 nM. Besides, the inhibition at 0.1 µM in data set [1] was 87%.
For `O=C(c1ccc2c(c1)c(-c1cccc(Cl)c1)cc(=O)n2CC1CC1)c1cncn1Cc1ccc(Cl)cc1` [Compound 16], the IC50 in data set [1] (setting [2]) was above 100 nM. Further, the inhibition at 0.1 µM in data set [1] stood at 18%.
For `N#Cc1ccc(Cn2c(=O)cc(-c3cccc(Cl)c3)c3cc(C(=O)c4cncn4Cc4ccc(Cl)cc4)ccc32)cc1` [Compound 17], in that order: above 100 nM and 33%.
